For 2 compounds, residual activity, IC50 and inhibition results are on record in ChEMBL document CHEMBL4507268 (2021).

The target in assay [1] is T1, Serine/threonine-protein kinase MAK (Homo sapiens) (UniProt P20794).
T1 sequence (whole entry): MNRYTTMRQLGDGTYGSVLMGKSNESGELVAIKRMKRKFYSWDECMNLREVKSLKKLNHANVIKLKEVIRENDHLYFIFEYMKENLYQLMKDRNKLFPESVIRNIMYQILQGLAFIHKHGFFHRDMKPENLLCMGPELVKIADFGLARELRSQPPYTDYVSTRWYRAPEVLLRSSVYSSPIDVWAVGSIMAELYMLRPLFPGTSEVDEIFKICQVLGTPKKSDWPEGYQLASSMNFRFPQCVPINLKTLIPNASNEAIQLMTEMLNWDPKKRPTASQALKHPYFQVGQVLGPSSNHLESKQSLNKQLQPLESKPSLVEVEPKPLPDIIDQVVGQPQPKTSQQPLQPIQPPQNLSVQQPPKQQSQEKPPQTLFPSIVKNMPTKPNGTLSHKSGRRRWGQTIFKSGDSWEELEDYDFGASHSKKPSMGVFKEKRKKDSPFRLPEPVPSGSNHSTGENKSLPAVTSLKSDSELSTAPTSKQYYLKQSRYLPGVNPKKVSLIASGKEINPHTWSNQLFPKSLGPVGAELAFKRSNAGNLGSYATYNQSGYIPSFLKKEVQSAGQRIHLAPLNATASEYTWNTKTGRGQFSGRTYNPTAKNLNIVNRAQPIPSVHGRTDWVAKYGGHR
Particulars: Compound concentration 1000.0 nM; call rule not given here.

Assay [2] has as its target T2, Tyrosine-protein kinase Tec (Homo sapiens) (UniProt P42680).
T2 sequence (whole entry): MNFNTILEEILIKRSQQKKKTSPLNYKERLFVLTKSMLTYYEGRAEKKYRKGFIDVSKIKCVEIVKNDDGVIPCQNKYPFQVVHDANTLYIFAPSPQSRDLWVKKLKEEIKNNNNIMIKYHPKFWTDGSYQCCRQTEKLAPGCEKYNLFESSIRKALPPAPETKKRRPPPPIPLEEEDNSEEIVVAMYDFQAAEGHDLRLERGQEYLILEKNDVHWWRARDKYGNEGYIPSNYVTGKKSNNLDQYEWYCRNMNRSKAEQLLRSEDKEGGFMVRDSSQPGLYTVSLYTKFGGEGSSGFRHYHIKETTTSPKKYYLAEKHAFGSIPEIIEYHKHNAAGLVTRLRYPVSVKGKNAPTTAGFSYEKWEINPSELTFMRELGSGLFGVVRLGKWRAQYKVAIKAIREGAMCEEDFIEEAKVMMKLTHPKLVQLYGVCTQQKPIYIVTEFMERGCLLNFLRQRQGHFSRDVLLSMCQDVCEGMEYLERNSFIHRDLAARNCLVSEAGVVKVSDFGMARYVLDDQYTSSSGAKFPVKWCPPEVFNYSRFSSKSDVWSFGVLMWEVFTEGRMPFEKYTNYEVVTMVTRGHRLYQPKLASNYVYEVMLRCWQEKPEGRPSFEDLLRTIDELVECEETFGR
Particulars: Compound concentration 1000.0 nM.

Assay [3] addresses Insulin-like growth factor 1 receptor (Homo sapiens) (UniProt P08069). Particulars: Compound concentration 1000.0 nM.
Assay [4] has as its system SN12C. In words: Proliferation assay: SN12C (renal cell carcinoma). It counts as functional, cell-based. The conditions noted are these: Homo sapiens.
The target of assay [5] is Histamine H2 receptor (Homo sapiens) (UniProt P25021). The conditions noted are these: Compound concentration 10.0 uM.
Sequence of Histamine H2 receptor (Homo sapiens) (P25021 whole entry): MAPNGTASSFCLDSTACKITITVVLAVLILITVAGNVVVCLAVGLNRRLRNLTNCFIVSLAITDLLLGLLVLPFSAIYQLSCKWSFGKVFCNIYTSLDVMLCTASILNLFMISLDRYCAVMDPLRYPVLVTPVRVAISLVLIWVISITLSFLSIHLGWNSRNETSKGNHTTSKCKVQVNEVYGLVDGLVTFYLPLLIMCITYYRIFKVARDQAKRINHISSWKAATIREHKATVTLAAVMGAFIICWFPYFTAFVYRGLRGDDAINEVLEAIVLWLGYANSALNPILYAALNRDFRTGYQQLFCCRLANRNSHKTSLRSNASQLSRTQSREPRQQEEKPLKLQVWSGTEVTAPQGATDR
For assay [6], the system named is Tyrosine-protein kinase ABL1 (Homo sapiens), P00519 [T315I]. Particulars: Compound concentration 1000.0 nM.
Assay [7] has as its target Cyclin-G-associated kinase (Homo sapiens) (UniProt O14976). Particulars: Compound concentration 1000.0 nM.
Assay [8] addresses Uncharacterized serine/threonine-protein kinase SBK3 (Homo sapiens) (UniProt P0C264). The conditions noted are these: Compound concentration 1000.0 nM.
The target in assay [9] is Macrophage colony-stimulating factor 1 receptor (Homo sapiens) (UniProt P07333). The conditions noted are these: Compound concentration 1000.0 nM.
Assay [10] has as its target Serine/threonine-protein kinase MARK2 (Homo sapiens) (UniProt Q7KZI7). The conditions noted are these: Compound concentration 1000.0 nM.
Assay [11] deals with Serine/threonine-protein kinase 16 (Homo sapiens) (UniProt O75716). The conditions noted are these: Compound concentration 1000.0 nM.
Sequence of Serine/threonine-protein kinase 16 (Homo sapiens) (O75716 whole entry): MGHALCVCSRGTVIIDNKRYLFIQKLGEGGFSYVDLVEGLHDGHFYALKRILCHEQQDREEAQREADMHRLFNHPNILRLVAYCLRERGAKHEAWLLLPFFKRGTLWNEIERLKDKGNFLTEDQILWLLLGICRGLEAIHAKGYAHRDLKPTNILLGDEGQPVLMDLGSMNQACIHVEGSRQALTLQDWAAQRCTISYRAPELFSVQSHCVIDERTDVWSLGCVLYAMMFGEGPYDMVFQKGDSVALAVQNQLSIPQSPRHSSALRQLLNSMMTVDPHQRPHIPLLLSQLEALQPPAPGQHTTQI
For assay [12], the target named is Tyrosine-protein kinase Fer (Homo sapiens) (UniProt P16591). The conditions noted are these: Compound concentration 1000.0 nM.
Sequence of Tyrosine-protein kinase Fer (Homo sapiens) (P16591 whole entry, looked up): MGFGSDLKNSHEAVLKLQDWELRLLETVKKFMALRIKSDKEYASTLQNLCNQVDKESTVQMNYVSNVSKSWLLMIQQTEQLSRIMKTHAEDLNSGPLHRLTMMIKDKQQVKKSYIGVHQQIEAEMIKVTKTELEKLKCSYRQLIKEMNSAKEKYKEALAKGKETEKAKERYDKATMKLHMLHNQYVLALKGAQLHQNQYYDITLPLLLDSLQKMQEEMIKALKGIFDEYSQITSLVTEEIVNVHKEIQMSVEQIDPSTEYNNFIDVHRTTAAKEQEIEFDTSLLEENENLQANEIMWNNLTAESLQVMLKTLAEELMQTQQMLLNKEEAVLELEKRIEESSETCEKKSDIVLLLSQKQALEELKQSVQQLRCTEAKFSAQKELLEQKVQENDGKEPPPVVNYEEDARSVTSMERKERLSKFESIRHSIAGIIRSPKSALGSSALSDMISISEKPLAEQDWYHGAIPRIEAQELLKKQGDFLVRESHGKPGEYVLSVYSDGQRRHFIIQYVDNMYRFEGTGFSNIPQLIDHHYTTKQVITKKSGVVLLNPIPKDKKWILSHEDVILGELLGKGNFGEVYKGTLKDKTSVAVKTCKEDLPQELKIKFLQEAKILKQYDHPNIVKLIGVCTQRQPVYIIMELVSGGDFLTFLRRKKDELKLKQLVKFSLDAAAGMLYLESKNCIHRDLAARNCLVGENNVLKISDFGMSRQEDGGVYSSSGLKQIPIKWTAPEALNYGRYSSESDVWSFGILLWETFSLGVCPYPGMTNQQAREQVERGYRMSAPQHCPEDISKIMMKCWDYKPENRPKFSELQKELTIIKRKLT
The target of assay [13] is T3, Rhodopsin kinase GRK1 (Homo sapiens) (UniProt Q15835).
T3 sequence (whole entry): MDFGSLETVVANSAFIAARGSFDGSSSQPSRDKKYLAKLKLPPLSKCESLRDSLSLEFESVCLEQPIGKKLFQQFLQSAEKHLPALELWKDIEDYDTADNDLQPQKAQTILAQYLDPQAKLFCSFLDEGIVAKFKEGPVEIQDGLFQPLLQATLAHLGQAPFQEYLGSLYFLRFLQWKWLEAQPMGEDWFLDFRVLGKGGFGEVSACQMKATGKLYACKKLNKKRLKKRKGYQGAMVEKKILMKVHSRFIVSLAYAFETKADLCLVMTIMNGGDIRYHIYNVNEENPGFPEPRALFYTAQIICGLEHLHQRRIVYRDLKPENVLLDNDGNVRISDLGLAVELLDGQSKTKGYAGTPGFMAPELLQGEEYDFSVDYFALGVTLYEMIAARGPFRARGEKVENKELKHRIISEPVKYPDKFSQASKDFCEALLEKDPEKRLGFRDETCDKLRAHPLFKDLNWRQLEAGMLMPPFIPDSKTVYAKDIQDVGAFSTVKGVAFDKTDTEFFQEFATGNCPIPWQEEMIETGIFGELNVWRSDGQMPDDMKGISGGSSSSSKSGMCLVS
Particulars: Compound concentration 1000.0 nM.

The target in assay [14] is Mu-type opioid receptor (Homo sapiens) (UniProt P35372). Particulars: Compound concentration 10.0 uM.
Sequence of Mu-type opioid receptor (Homo sapiens) (P35372 whole entry): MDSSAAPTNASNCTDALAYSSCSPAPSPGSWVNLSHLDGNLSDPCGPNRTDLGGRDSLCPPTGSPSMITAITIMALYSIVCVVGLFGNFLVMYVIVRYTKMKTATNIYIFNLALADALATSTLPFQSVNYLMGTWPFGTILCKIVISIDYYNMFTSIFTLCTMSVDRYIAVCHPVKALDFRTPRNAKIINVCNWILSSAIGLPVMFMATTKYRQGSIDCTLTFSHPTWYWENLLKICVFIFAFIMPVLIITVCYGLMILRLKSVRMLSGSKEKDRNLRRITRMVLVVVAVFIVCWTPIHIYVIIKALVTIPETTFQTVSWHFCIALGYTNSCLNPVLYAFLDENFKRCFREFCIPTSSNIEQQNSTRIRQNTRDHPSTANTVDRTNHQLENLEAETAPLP
Assay [15] deals with Epidermal growth factor receptor (Homo sapiens), P00533 [L861Q]. The conditions noted are these: Compound concentration 1000.0 nM.
Assay [16] addresses Serine/threonine-protein kinase PAK 4 (Homo sapiens) (UniProt O96013). The conditions noted are these: Compound concentration 1000.0 nM.
The target of assay [17] is Cyclin-dependent kinase 4 (Homo sapiens) (UniProt P11802). The conditions noted are these: Compound concentration 1000.0 nM.
Assay [18] has as its target Phosphatidylinositol 4-phosphate 5-kinase type-1 gamma (Homo sapiens) (UniProt O60331). Particulars: Compound concentration 1000.0 nM.
For assay [19], the target named is Serine/threonine-protein kinase 25 (Homo sapiens) (UniProt O00506). The conditions noted are these: Compound concentration 1000.0 nM.
Sequence of Serine/threonine-protein kinase 25 (Homo sapiens) (O00506 whole entry, looked up): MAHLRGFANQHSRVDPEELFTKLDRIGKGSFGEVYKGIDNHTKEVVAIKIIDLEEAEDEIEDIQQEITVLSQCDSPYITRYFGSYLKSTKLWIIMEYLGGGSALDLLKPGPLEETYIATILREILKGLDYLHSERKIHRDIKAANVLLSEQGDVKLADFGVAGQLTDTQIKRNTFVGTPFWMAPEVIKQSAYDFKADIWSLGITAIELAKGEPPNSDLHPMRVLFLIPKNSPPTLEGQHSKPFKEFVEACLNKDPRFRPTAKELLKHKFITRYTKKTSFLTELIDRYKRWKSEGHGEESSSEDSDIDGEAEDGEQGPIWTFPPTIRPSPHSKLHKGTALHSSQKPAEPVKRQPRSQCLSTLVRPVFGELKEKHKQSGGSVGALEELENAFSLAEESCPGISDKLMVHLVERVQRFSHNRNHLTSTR

Where only a bound is given, the exact number is not on record here.

Sequence of Uncharacterized serine/threonine-protein kinase SBK3 (Homo sapiens) (P0C264 whole entry): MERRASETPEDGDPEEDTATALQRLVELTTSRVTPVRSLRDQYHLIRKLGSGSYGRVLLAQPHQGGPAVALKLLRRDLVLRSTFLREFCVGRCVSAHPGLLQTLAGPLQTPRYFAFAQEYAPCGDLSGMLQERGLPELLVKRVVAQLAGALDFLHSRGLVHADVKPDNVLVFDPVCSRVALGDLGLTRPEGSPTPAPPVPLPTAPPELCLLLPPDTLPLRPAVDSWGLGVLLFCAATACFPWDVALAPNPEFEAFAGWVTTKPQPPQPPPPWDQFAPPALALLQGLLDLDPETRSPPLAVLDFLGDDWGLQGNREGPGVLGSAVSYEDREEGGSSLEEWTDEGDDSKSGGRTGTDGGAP
Sequence of Insulin-like growth factor 1 receptor (Homo sapiens) (P08069 31-736 limits assumed): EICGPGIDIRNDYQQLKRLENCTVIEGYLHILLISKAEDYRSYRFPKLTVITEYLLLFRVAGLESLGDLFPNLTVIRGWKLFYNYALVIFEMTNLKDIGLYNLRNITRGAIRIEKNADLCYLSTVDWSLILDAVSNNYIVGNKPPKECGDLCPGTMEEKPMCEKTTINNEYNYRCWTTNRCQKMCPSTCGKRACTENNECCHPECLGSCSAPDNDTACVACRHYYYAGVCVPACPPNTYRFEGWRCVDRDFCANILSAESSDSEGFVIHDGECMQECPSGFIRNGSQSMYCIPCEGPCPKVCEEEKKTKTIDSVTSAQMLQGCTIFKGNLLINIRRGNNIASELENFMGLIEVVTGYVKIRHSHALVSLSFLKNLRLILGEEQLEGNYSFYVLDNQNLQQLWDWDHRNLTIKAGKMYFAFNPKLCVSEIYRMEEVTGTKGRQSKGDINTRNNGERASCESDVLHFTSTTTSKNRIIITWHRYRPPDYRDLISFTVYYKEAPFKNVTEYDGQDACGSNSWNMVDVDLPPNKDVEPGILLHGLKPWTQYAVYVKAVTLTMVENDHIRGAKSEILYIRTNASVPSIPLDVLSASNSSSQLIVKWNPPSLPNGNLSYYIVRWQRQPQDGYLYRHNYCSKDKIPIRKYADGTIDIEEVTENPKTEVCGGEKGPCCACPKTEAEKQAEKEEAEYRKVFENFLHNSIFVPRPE
Sequence of Insulin-like growth factor 1 receptor (Homo sapiens) (P08069 741-1367 limits assumed): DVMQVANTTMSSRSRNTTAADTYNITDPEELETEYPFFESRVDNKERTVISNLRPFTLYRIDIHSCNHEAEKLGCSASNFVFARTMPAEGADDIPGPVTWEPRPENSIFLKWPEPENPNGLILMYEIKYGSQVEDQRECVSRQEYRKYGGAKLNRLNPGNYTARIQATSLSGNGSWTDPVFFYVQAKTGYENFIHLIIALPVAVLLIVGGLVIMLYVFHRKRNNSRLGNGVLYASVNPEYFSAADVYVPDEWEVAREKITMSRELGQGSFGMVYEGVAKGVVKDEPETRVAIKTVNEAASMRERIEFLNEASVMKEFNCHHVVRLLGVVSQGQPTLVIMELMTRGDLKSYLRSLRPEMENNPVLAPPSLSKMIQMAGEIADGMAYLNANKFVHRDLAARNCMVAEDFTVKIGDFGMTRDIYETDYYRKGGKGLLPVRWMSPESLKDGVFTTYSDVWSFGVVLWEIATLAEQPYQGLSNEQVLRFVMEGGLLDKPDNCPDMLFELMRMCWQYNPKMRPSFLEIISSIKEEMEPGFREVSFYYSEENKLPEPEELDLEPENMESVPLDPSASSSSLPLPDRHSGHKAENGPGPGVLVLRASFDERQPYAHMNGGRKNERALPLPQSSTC
Sequence of Serine/threonine-protein kinase MARK2 (Homo sapiens) (Q7KZI7 whole entry): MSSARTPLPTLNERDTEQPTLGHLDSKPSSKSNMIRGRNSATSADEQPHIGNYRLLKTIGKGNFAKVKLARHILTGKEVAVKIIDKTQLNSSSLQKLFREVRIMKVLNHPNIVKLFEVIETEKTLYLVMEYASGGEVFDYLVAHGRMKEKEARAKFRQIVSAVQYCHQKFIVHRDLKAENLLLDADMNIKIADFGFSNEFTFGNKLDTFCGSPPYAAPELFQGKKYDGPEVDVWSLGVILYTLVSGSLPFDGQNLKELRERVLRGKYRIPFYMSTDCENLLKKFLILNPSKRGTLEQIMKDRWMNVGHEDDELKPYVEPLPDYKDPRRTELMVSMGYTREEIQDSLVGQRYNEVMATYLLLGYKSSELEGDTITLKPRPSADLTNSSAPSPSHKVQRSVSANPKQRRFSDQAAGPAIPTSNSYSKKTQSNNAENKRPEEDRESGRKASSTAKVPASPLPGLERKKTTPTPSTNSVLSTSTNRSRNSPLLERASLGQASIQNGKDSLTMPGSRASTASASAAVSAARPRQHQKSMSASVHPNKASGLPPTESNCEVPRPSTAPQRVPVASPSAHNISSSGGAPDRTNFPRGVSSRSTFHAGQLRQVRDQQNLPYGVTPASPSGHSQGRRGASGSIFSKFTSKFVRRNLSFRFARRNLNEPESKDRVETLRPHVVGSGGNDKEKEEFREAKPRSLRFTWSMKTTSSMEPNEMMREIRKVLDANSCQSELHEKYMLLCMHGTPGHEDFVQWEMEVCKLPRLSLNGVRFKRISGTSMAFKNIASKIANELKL

For `Cc1nc(C2CCN(C(=O)c3ccc(OC(F)(F)F)cc3N)CC2)c2ncc(N3CCN(C)CC3)cc2n1` [BAY-693], the residual activity is 99% in [1]; 96% in assay [2]; 91% in assay [3]; 89% in assay [6]; 100% in [7]; 77% in assay [8]. Further, the residual activity was 99% in assay [9]; 100% in assay [10]; 100% in assay [11]; 99% in assay [12]; 100% in [13]; 100% in assay [15]. For the same compound, the residual activity was 100% in assay [16], 100% in assay [17], 94% in assay [18] and 100% in assay [19]. Moreover, in assay [4], the half-maximal inhibitory concentration (IC50) (usually the midpoint of a concentration-inhibition curve) is 29.3 µM (not active). Also, the inhibition – broadly, the relative decrease from the control value, in per cent – in assay [5] is 23.6%; in assay [14] it was -1.66%.

For the compound `CN1CCN(c2cnc3c(C4CCN(C(=O)c5ccc(OC(F)(F)F)cc5N)CC4)ncnc3c2)CC1` [BAY-885], the residual activity in [1] was 100%; in assay [2], 100%; in assay [3], 100%; in [6], 100%; in assay [7], 100%; in assay [8], 72%. Besides, the residual activity in assay [9] was 100%; in [10], 100%; in assay [11] it was 100%; in assay [12] it was 100%; in [13], 96%; in assay [15], 100%. The residual activity in [16] is 91%; in [17], 100%; in assay [18] it was 100%; in assay [19], 92%. For the same compound, the half-inhibitory concentration (IC50) in assay [4] was > 30 µM (not active). Also, the inhibition in assay [5] was 31.2%; in assay [14], 13.2%.
